In the NIST ThermoML archive (doi:10.1021/je034162x):

Conditions: 101.33 kPa, Liquid, Hot wire method

C1CCCCCCC1 [cyclooctane]
Conditions	thermal conductivity [W/m/K]	thermal diffusivity [m2/s]
288.7 K	0.1205	–
288.96 K	0.1203	–
289.17 K	0.1202	–
289.34 K	–	7.48e-08
289.97 K	–	7.48e-08
290.48 K	–	7.48e-08
295.85 K	0.1191	–
295.88 K	0.1191	–
296.09 K	0.1189	–
296.21 K	0.1188	–
296.43 K	–	7.39e-08
296.51 K	–	7.35e-08
297.02 K	–	7.36e-08
297.3 K	–	7.36e-08
311.67 K	0.1156	–
311.88 K	0.1154	–
312.1 K	0.1154	–
312.37 K	–	7.05e-08
312.87 K	–	7.03e-08
313.4 K	–	7.04e-08
328.99 K	0.1119	–
329.22 K	0.1118	–
329.43 K	0.1117	–
329.7 K	–	6.75e-08
330.22 K	–	6.75e-08
330.71 K	–	6.72e-08

C1=CCCC1 [cyclopentene]
Conditions	thermal conductivity [W/m/K]	thermal diffusivity [m2/s]
258.72 K	0.1491	–
258.94 K	0.1489	–
259.1 K	0.1488	–
259.64 K	–	1.13e-07
260.25 K	–	1.12e-07
260.69 K	–	1.12e-07
276.99 K	0.1409	–
277.23 K	0.1407	–
277.4 K	0.1406	–
277.93 K	–	1.05e-07
278.57 K	–	1.05e-07
279.02 K	–	1.05e-07
294.92 K	0.133	–
295.16 K	0.1328	–
295.33 K	0.1327	–
295.88 K	–	9.78e-08
296.54 K	–	9.78e-08
296.99 K	–	9.74e-08
312.58 K	0.1258	–
312.84 K	0.1256	–
313.02 K	0.1255	–
313.55 K	–	9.09e-08
314.21 K	–	9.08e-08
314.67 K	–	9.05e-08

Cc1cccc(C)c1 [1,3-dimethylbenzene]
Conditions	thermal conductivity [W/m/K]	thermal diffusivity [m2/s]
258.17 K	0.1393	–
258.42 K	0.1391	–
258.58 K	0.1391	–
259.01 K	–	9.79e-08
259.67 K	–	9.79e-08
260.12 K	–	9.82e-08
275.04 K	0.1353	–
275.28 K	0.1353	–
275.44 K	0.1352	–
275.95 K	–	9.46e-08
276.57 K	–	9.45e-08
277 K	–	9.44e-08
287.36 K	0.1323	–
287.6 K	0.1322	–
287.77 K	0.132	–
288.27 K	–	9.16e-08
288.91 K	–	9.19e-08
289.35 K	–	9.17e-08
294.07 K	0.1305	–
294.32 K	0.1305	–
294.49 K	0.1304	–
294.99 K	–	9.03e-08
295.64 K	–	9.06e-08
296.09 K	–	9.03e-08
311.74 K	0.126	–
312 K	0.1259	–
312.18 K	0.1258	–
312.68 K	–	8.65e-08
313.34 K	–	8.66e-08
313.8 K	–	8.64e-08
328.79 K	0.1218	–
329.04 K	0.1216	–
329.22 K	0.1215	–
329.74 K	–	8.28e-08
330.36 K	–	8.22e-08
330.83 K	–	8.22e-08

[2H]C1([2H])C([2H])([2H])C([2H])([2H])C([2H])([2H])C([2H])([2H])C1([2H])[2H] [cyclohexane-d12]
Conditions	thermal conductivity [W/m/K]	thermal diffusivity [m2/s]
280.46 K	0.1163	–
280.63 K	0.1162	–
280.74 K	0.1161	–
280.97 K	–	6.83e-08
281.35 K	–	6.85e-08
281.6 K	–	6.81e-08
291.18 K	0.1133	–
291.34 K	0.1133	–
291.45 K	0.1132	–
291.65 K	–	6.5e-08
292.04 K	–	6.54e-08
292.29 K	–	6.53e-08
303.67 K	0.11	–
303.83 K	0.1099	–
303.92 K	0.1098	–
304.14 K	–	6.23e-08
304.49 K	–	6.22e-08
304.72 K	–	6.19e-08
315.91 K	0.1067	–
316.06 K	0.1066	–
316.17 K	0.1066	–
316.35 K	–	5.91e-08
316.71 K	–	5.93e-08
316.96 K	–	5.96e-08
326.3 K	0.1042	–
326.44 K	0.104	–
326.54 K	0.104	–
326.75 K	–	5.75e-08
327.08 K	–	5.73e-08
327.31 K	–	5.72e-08

C1=CCCCC1 [cyclohexene]
Conditions	thermal conductivity [W/m/K]	thermal diffusivity [m2/s]
257.22 K	0.1406	–
257.42 K	0.1404	–
257.57 K	0.1404	–
257.97 K	–	1.01e-07
258.49 K	–	1.01e-07
258.86 K	–	1.01e-07
275.37 K	0.1348	–
275.58 K	0.1346	–
275.73 K	0.1346	–
276.12 K	–	9.55e-08
276.65 K	–	9.55e-08
277.03 K	–	9.56e-08
295.57 K	0.1284	–
295.77 K	0.1282	–
295.92 K	0.1281	–
296.28 K	0.1278	–
296.29 K	–	8.83e-08
296.49 K	0.1277	–
296.65 K	0.1276	–
296.77 K	–	8.78e-08
297.03 K	–	8.88e-08
297.15 K	–	8.79e-08
297.55 K	–	8.87e-08
297.94 K	–	8.88e-08
311.67 K	0.1231	–
311.89 K	0.1229	–
312.04 K	0.1228	–
312.42 K	–	8.46e-08
312.96 K	–	8.46e-08
313.32 K	–	8.42e-08
327.85 K	0.118	–
328.07 K	0.1178	–
328.22 K	0.1177	–
328.59 K	–	7.97e-08
329.13 K	–	7.97e-08
329.49 K	–	7.94e-08

Cc1cccc(C)c1C [1,2,3-trimethylbenzene]
Conditions	thermal conductivity [W/m/K]	thermal diffusivity [m2/s]
257.62 K	0.1341	–
257.83 K	0.134	–
257.99 K	0.134	–
258.45 K	–	8.6e-08
259 K	–	8.55e-08
259.4 K	–	8.56e-08
276.36 K	0.1312	–
276.58 K	0.1312	–
276.73 K	0.1311	–
277.15 K	–	8.25e-08
277.71 K	–	8.21e-08
278.1 K	–	8.2e-08
283.35 K	0.1303	–
283.57 K	0.1302	–
283.74 K	0.1302	–
284.17 K	–	8.15e-08
284.73 K	–	8.14e-08
285.14 K	–	8.15e-08
295.58 K	0.1281	–
295.81 K	0.1279	–
295.99 K	0.1279	–
296.43 K	–	8.04e-08
297.01 K	–	8.01e-08
297.45 K	–	8.04e-08
312.79 K	0.1252	–
313.04 K	0.1252	–
313.21 K	0.1251	–
313.65 K	–	7.79e-08
314.26 K	–	7.81e-08
314.68 K	–	7.78e-08
330.74 K	0.1218	–
330.99 K	0.1218	–
331.17 K	0.1217	–
331.59 K	–	7.49e-08
332.23 K	–	7.53e-08
332.65 K	–	7.51e-08

CCCc1ccccc1 [propylbenzene]
Conditions	thermal conductivity [W/m/K]	thermal diffusivity [m2/s]
261.18 K	0.1358	–
261.4 K	0.1357	–
261.57 K	0.1356	–
262.04 K	–	9.04e-08
262.63 K	–	9.06e-08
263.06 K	–	9.06e-08
275.09 K	0.133	–
275.33 K	0.1328	–
275.5 K	0.1328	–
275.98 K	–	8.84e-08
276.61 K	–	8.87e-08
277.03 K	–	8.85e-08
294.17 K	0.1286	–
294.42 K	0.1285	–
294.6 K	0.1285	–
295.08 K	–	8.49e-08
295.74 K	–	8.53e-08
296.19 K	–	8.52e-08
312.54 K	0.1247	–
312.79 K	0.1246	–
312.97 K	0.1245	–
313.45 K	–	8.14e-08
314.1 K	–	8.16e-08
314.56 K	–	8.15e-08
329.54 K	0.1208	–
329.79 K	0.1207	–
329.98 K	0.1207	–
330.45 K	–	7.8e-08
331.09 K	–	7.79e-08
331.57 K	–	7.81e-08

CC1CCCC1 [methylcyclopentane]
Conditions	thermal conductivity [W/m/K]	thermal diffusivity [m2/s]
258.71 K	0.1273	–
258.96 K	0.1271	–
259.11 K	0.127	–
259.52 K	–	9.4e-08
260.16 K	–	9.37e-08
260.57 K	–	9.34e-08
277 K	0.1212	–
277.24 K	0.1211	–
277.41 K	0.121	–
277.86 K	–	8.8e-08
278.49 K	–	8.85e-08
278.91 K	–	8.82e-08
294.9 K	0.1155	–
295.15 K	0.1154	–
295.32 K	0.1153	–
295.76 K	–	8.24e-08
296.37 K	–	8.25e-08
296.8 K	–	8.24e-08
312.57 K	0.1101	–
312.82 K	0.11	–
312.99 K	0.1099	–
313.44 K	–	7.77e-08
314.04 K	–	7.73e-08
314.46 K	–	7.71e-08
